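Five concentrations, 48 hours, 96-well plates. GI50 = concentration required for 50% inhibition of growth.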 Calls of active or inactive are those of the source. Rule as the data show it: active = GI50 up to about 1.1 µM and inactive = higher.
Tests used:
Experiment in all cases: NCI tumour cell line growth inhibition, 48 h
[1] = tested on: 786-0
[2] = tested on: A498
[3] = tested on: A549
[4] = tested on: ACHN
[5] = tested on: BT-549
[6] = tested on: CAKI-1
[7] = tested on: CCRF-CEM
[8] = tested on: COLO 205
[9] = tested on: DU-145
[10] = tested on: EKVX
[11] = tested on: HCC 2998
[12] = tested on: HCT-116
[13] = tested on: HCT-15
[14] = tested on: HL-60
[15] = tested on: HOP-62
[16] = tested on: HOP-92
[17] = tested on: HT-29
[18] = tested on: IGROV-1
[19] = tested on: K562
[20] = tested on: KM12
[21] = tested on: LOX IMVI
[22] = tested on: M14
[23] = tested on: MCF7
[24] = tested on: MDA-MB-231
[25] = tested on: MDA-MB-435
[26] = tested on: MDA-N
[27] = tested on: MOLT-4
[28] = tested on: Malme-3M
[29] = tested on: NCI-H226
[30] = tested on: NCI-H23
[31] = tested on: NCI-H460
[32] = tested on: NCI-H522
[33] = tested on: NCI/ADR-RES
[34] = tested on: OVCAR-3
[35] = tested on: OVCAR-4
[36] = tested on: OVCAR-5
[37] = tested on: OVCAR-8
[38] = tested on: PC-3
[39] = tested on: RXF 393
[40] = tested on: SF-268
[41] = tested on: SF-295
[42] = tested on: SF-539
[43] = tested on: SK-MEL-28
[44] = tested on: SK-OV-3
[45] = tested on: SN12C
[46] = tested on: SNB-19
[47] = tested on: SNB-75
[48] = tested on: SR
[49] = tested on: SW-620
[50] = tested on: T47D
[51] = tested on: TK-10
[52] = tested on: U-251
[53] = tested on: UACC-257
[54] = tested on: UACC-62
[55] = tested on: UO-31
[56] = tested on: RPMI-8226

Measured: GI50

CC(C)(C)Cc1cc(O)ccc1O
inactive: [1] 63.5 µM | [2] > 100 µM | [3] 58.9 µM | [4] 86.1 µM | [5] 93.3 µM | [6] > 100 µM | [7] 26.5 µM | [8] > 100 µM | [9] > 100 µM | [10] 48.9 µM | [11] 51.9 µM | [12] 61.1 µM | [14] 6.73 µM | [15] > 100 µM | [16] > 100 µM | [17] > 100 µM | [18] > 100 µM | [19] 48.3 µM | [20] 64.9 µM | [21] 60.3 µM | [22] 46.2 µM | [23] 74.8 µM | [24] 42.2 µM | [25] 39.1 µM | [26] 43.2 µM | [27] 36.4 µM | [28] > 100 µM | [29] > 100 µM | [30] 77.3 µM | [31] 63.4 µM | [32] 27 µM | [33] 35.6 µM | [34] 39.3 µM | [35] > 100 µM | [36] > 100 µM | [37] 53 µM | [38] > 100 µM | [39] 98.6 µM | [40] 87.9 µM | [41] 44 µM | [42] 70.8 µM | [43] > 100 µM | [44] > 100 µM | [45] 51.3 µM | [46] 49.9 µM | [47] 58.9 µM | [48] 24 µM | [49] 61.9 µM | [50] 60.5 µM | [51] > 100 µM | [52] 43.5 µM | [53] 33.3 µM | [54] > 100 µM | [55] > 100 µM
34.7 µM: [13]

CC1(C)C(=O)C2(N)CCC1C2 (stereo unspecified)
inactive: [1] > 100 µM | [2] > 10 µM | [4] > 100 µM | [5] > 100 µM | [6] > 100 µM | [7] > 100 µM | [8] > 100 µM | [9] > 100 µM | [11] > 100 µM | [12] > 100 µM | [16] > 100 µM | [20] > 100 µM | [21] > 100 µM | [24] > 100 µM | [25] > 100 µM | [26] > 100 µM | [29] > 100 µM | [30] > 100 µM | [31] > 100 µM | [33] > 100 µM | [35] > 100 µM | [37] > 100 µM | [56] > 100 µM | [40] > 100 µM | [43] > 100 µM | [45] > 100 µM | [46] > 100 µM | [47] > 100 µM | [48] > 100 µM | [50] > 100 µM | [51] > 100 µM | [52] > 100 µM | [53] > 100 µM | [54] > 100 µM | [55] > 100 µM
> 100 µM: [13]

— ChEMBL document CHEMBL1201862, “PubChem BioAssay data set” (2004)
